The nature of assay [1]: Inhibitory activity against Escherichia coli Beta-ketoacyl-ACP synthase III (FabH) (initiator of the fatty acid synthesis).
Assay [2] is described as follows: Inhibitory activity against Streptococcus pneumoniae Beta-ketoacyl-ACP synthase III (FabH) (initiator of the fatty acid synthesis).
A short description of assay [3]: Inhibitory activity against Streptococcus pneumoniae Beta-ketoacyl-ACP synthase III (initiator of the fatty acid synthesis).
Assay [4] is described as follows: Inhibitory activity against Escherichia coli Beta-ketoacyl-ACP synthase III (initiator of the fatty acid synthesis).
A short description of assay [5]: Inhibitory activity against Escherichia coli FabH (initiator of the fatty acid synthesis).
Assay [6] can be described thus: Inhibitory activity against Streptococcus pneumoniae FabH (initiator of the fatty acid synthesis).

The results in this text go back to ChEMBL document CHEMBL1145021, “First X-ray cocrystal structure of a bacterial FabH condensing enzyme and a small molecule inhibitor achieved using rational design and homology modeling” (J Med Chem, 2003).

pIC50: −log10 of the molar value.

In general, pIC50 refers to the negative decadic logarithm of the IC50, by convention in mol/L. Read a low pIC50 as a large IC50. `O=C(O)CCCCCCn1c(C(=O)O)cc2cc(OCc3c(Cl)cccc3Cl)ccc21`: the negative-log IC50 (pIC50) in assay [1] is 5.70; in assay [2] it was 6.77.

As to `O=C(O)c1ccc(Cn2c(C(=O)O)cc3cc(OCc4c(Cl)cccc4Cl)ccc32)cc1`, the pIC50 is 6.70 in assay [3] and 5.60 in assay [4].

With `O=C(CCCCCn1c(C(=O)O)cc2cc(OCc3c(Cl)cccc3Cl)ccc21)NS(=O)(=O)c1ccccc1`, the pIC50 in assay [1] is 5.34; in assay [2] it was 7.34.

In the case of `O=C(O)c1cc2cc(OCc3c(Cl)cccc3Cl)ccc2n1Cc1ccc(O)cc1`, the figures for the pIC50 in assay [5] and in assay [6] were 5.70 and 7.28, respectively.

For `O=C(O)CCCn1c(C(=O)O)cc2cc(OCc3c(Cl)cccc3Cl)ccc21`, the figures for the negative logarithm of the IC50 (pIC50) in assay [1] and in assay [2] were 5.77 and 7.21, respectively.

As for `O=C(O)CCCCCn1c(C(=O)O)cc2cc(OCc3c(Cl)cccc3Cl)ccc21`, the pIC50 in assay [2] was 6.85.

As for `O=C(O)Cn1c(C(=O)O)cc2cc(OCc3c(Cl)cccc3Cl)ccc21`, the pIC50 is 4.11 in assay [1] and 5.92 in assay [2].

On to `O=C(O)c1cc2cc(OCc3c(Cl)cccc3Cl)ccc2n1Cc1cc2c(cc1Cl)OCO2`, for which the values for the pIC50 in assay [5] and in assay [6] were 6.08 and 7.40, respectively.
